{
  "source": "patent US9365591B2",
  "about": "“Fluoroergoline analogs” (MAP Pharmaceuticals, Inc., priority 2011, dated 2016)",
  "key": {"[1]": {"biological_target": "T1, human 5-HT2B receptor (Homo sapiens, UniProt P41595)", "T1 construct": "host or cells: CHO-K1", "T1 sequence (P41595 whole entry)": "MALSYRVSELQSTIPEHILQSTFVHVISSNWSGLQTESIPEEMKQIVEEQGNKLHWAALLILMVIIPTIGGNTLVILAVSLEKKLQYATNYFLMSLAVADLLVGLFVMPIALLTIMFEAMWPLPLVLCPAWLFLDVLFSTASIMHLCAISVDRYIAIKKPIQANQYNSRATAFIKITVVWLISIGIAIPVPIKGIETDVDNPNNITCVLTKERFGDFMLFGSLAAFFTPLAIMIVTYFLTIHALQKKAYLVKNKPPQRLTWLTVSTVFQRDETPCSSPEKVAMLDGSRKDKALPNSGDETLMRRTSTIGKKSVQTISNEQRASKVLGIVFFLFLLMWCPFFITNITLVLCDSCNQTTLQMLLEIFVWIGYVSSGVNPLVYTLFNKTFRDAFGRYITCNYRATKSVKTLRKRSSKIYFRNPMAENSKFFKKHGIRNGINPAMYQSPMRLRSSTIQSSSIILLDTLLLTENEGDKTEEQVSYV", "assay": "Aequorin assay, agonist activity at the 5-HT2B receptor", "format": "cell-based", "procedure": "Percentage activation values were determined for 2-CF3 dihydroergotamine at the 5-HT2B receptor."}, "[2]": {"biological_target": "T1, human 5-HT2B receptor", "assay": "Aequorin assay, competitive antagonist activity at the 5-HT2B receptor", "format": "cell-based", "procedure": "Percentage inhibition values were determined for 2-CF3 dihydroergotamine on the 5-HT2B receptor."}, "[3]": {"assay": "Metabolism in human liver microsomes", "details": "1 μM, 37° C., 0-60 min; for metabolism by human liver microsomes in the presence of NADPH: 0.2 mg protein/mL", "procedure": "Metabolism of dihydroergotamine (DHE) and 2-CF3 DHE was evaluated in human liver microsomes. DHE mesylate and 2-CF3 DHE mesylate (1 μM each) were incubated separately with human liver microsomes (0.2 mg protein/mL) in triplicate at 37° C. in 0.2 mL (final volume) incubation buffer (50 mM potassium phosphate buffer, pH 7.4, 3 mM MgCl2 and 1 mM EDTA, pH 7.4) with or without cofactor, NADPH-generating system. The NADPH-generating system consisted of 1 mM NADPH, pH 7.4, 5 mM glucose-6-phosphate, pH 7.4 and 1 unit/mL glucose-6-phosphate dehydrogenase. DHE was added to the incubation mixtures in water. 2-CF3-DHE was added to incubation mixtures in 50:50 (v:v) acetonitrile:water. A low level of acetonitrile in the incubation was maintained to avoid any solvent effects on enzyme activity (typically at 0.5% or lower). Reactions were initiated by the addition of the NADPH-generating system and were terminated at 0, 15, 30 and 60 minutes after initiation by the addition of 175 μL of stop reagent (acetonitrile) containing two internal standards (4′-hydroxydiclofenac-d4 and 1′-hydroxymidazolam-d4, 200 and 50 ng/mL in the final stopped incubation, respectively). The samples were then centrifuged and the supernatant fractions were analyzed by LC/MS/MS to quantify the formation of 8′-OH-DHE (metabolite) in the DHE samples and DHE and 8′-OH-DHE in the 2-CF3-DHE samples."}, "[4]": {"tested_on": "Salmonella typhimurium", "assay": "Genotoxicity study, reversion of histidine-requiring Salmonella typhimurium strains", "format": "cell-based", "details": "five histidine-requiring strains, absence and presence of a rat liver metabolizing system; Dunnett's test, 1% level", "procedure": "Genotoxicity studies were performed to evaluate the potential mutagenic activity of 2-CF3-DHE. Studies were performed to examine the ability of 2-CF3-DHE to revert five histidine-requiring strains of Salmonella typhimurium in the absence and presence of a rat liver metabolizing system. […] This is consistent with the conclusion that there was no evidence of any mutagenic activity observed with 2-CF3-DHE."}, "[5]": {"tested_on": "human saphenous veins", "assay": "Constriction assay, human saphenous veins", "details": "CCRC 100 pM to 10 μM, 6 donors", "procedure": "(§1) Human coronary arteries and saphenous veins were set up under isometric conditions on either small vessel wire myographs or organ baths, depending on vessel size, in order to examine the influence of the test article on the relative changes in tension. In order to assess tissue viability, the vessel segments were constricted with a high potassium solution (KPSS, 62.5 mM) three times. Vessels were then pre-constricted with sumatriptan (1 μM) and endothelium-dependent vasorelaxation investigated using bradykinin (10 μM). […] All vessels were fully relaxed at the end of the experiment using forskolin (10 μM).\n(§2) Coronary arteries and small saphenous veins, having been cut into ring segments of approximately 2 mm length, were attached by 40 μm diameter wire running through the lumen of the vessel to stainless steel heads in 5 mL myograph baths containing PSS (physiological saline solution), aerated with 95% 02 and 5% CO2 and maintained at a temperature of 37° C. Changes in tension were recorded using a Danish Myotech isometric transducer. The vessel segments were allowed to equilibrate for at least 30 minutes after set up. Segments were processed through a standardization procedure of tension application, which reduces signal variability and allows for optimal tissue response to be obtained prior the pharmacological intervention. […]"}, "[6]": {"tested_on": "human coronary arteries", "assay": "Constriction assay, human coronary arteries", "details": "CCRC 100 pM to 10 μM in half-log steps, n=6", "procedure": "as §1, §2"}},
  "note": "“Also recorded” adds a separate entry of the source.",
  "data": [
    {"smiles": "CN1C[C@H](C(=O)N[C@]2(C)O[C@@]3(O)C4CCCN4C(=O)[C@H](Cc4ccccc4)N3C2=O)CC2c3cccc4[nH]c(C(F)(F)F)c(c34)CC21", "note": "(stereo partly drawn) [2-CF3-dihydroergotamine]", "values": [
      {"measurement": "agonist activity at the 5-HT2B receptor", "setting": "[1]; 0.01 nM to 20,000 nM, compared with Emax of α-methyl-5-HT", "value": "no agonist activity; also recorded: little agonist activity"},
      {"measurement": "antagonism of the 5-HT2B receptor", "setting": "[2]; FIG. 2", "value": "potent antagonism"}
    ]},
    {"smiles": "CN1C[C@H](C(=O)N[C@]2(C)O[C@@]3(O)[C@@H]4CCCN4C(=O)[C@H](Cc4ccccc4)N3C2=O)CC2c3cccc4[nH]c(C(F)(F)F)c(c34)CC21", "note": "(stereo partly drawn) [2-CF3-dihydroergotamine]", "values": [
      {"measurement": "metabolism by human liver microsomes in the presence of NADPH", "setting": "[3]; listed as 2-CF3-DHE", "value": "extensively metabolized"},
      {"measurement": "intrinsic clearance, slower than that of DHE", "setting": "[3]; human liver microsomes 0.2 mg protein/mL, with NADPH", "value": "about 85%"},
      {"measurement": "mutagenic activity, revertant numbers", "setting": "[4]", "value": "no statistically significant increases in the revertant numbers"},
      {"measurement": "change in tension, saphenous veins", "setting": "[5]", "value": "no change in tension"},
      {"measurement": "change in tension, coronary arteries", "setting": "[6]; listed as 2-CF3-DHE", "value": "only a very slight mean increase in tension; also recorded: slight mean increase in tension"}
    ]},
    {"smiles": "Cc1cc(NC(=O)Nc2ccc3c(ccn3C)c2)sn1", "note": "[SB204741, reference compound]", "values": [
      {"measurement": "IC50", "setting": "[2]; CHO-K1 cells, reference agonist at its EC50, 0.005 nM to 10,000 nM, read-out: IC50, antagonism of the 5-HT2B receptor", "value": 28.8, "unit": "nM"}
    ]},
    {"smiles": "CN1C[C@H](C(=O)N[C@]2(C)O[C@@]3(O)[C@@H]4CCCN4C(=O)[C@H](Cc4ccccc4)N3C2=O)C[C@@H]2c3cccc4[nH]cc(c34)C[C@H]21", "note": "[dihydroergotamine, reference compound]", "values": [
      {"measurement": "metabolism by human liver microsomes in the presence of NADPH", "setting": "[3]; listed as DHE", "value": "extensively metabolized"}
    ]},
    {"smiles": "CNS(=O)(=O)Cc1ccc2[nH]cc(CCN(C)C)c2c1", "note": "[sumatriptan, reference compound]", "values": [
      {"measurement": "EC50", "setting": "[5]; Homo sapiens, read-out: EC50, constriction curve, saphenous veins", "value": 187, "unit": "nM"},
      {"measurement": "EC50", "setting": "[6]; Homo sapiens, read-out: EC50, constriction curve, coronary arteries", "value": 112, "unit": "nM"}
    ]},
    {"smiles": "CC(N)Cc1c[nH]c2ccc(O)cc12", "note": "(stereo not drawn) [α-methyl-5-HT, reference compound]", "values": [
      {"measurement": "EC50", "setting": "[1]; CHO-K1 cells coexpressing apoaequorin and recombinant human 5-HT2B, reference agonist, read-out: EC50, agonism of the 5-HT2B receptor", "value": 1.01, "unit": "nM"}
    ]}
  ]
}
